Measured values reported in article PMC5356311, “Experimental recreation of the evolution of lignin-degrading enzymes from the Jurassic to date” (Biotechnology for Biofuels, 2017).
Read-outs that look alike come from different tables or passages of the source.

Experiments:
ALiP [1] = experiment: steady-state kinetics, spectrophotometric ([…] nm); format: biochemical, ancestral sequence (Polyporales, reconstructed); conditions: 0.2 mM H2O2, 0.1 M tartrate, pH 3.0, 25 °C; exposed Trp site
AVP [2] = experiment: steady-state kinetics, spectrophotometric ([…] nm); format: biochemical, ancestral sequence (Polyporales, reconstructed); conditions: 0.4 mM H2O2, 0.1 M tartrate, pH 3.5, 25 °C; exposed Trp site
AVP [3] = experiment: steady-state kinetics, spectrophotometric ([…] nm); format: biochemical, ancestral sequence (Polyporales, reconstructed); conditions: 0.4 mM H2O2, 0.1 M tartrate, pH 3, 25 °C; exposed Trp site
ALiP [4] = experiment: steady-state kinetics, spectrophotometric ([…] nm); format: biochemical, ancestral sequence (Polyporales, reconstructed); conditions: 0.2 mM H2O2, 0.1 M tartrate, pH 3, 25 °C; exposed Trp site
ALiP [5] = conditions: read-out: ALiP; 0.2 mM H2O2, 0.1 M tartrate, pH 3.5, 25 °C; high efficiency site (exposed Trp)
CaPo-bis = conditions: saturating H2O2, 0.1 M tartrate, 25 °C; low efficiency site (heme channel)
CaPo-tris = conditions: saturating H2O2, 0.1 M tartrate, 25 °C; low efficiency site (heme channel)
CaCD [6] = conditions: read-out: CaCD; 0.4 mM H2O2, 0.1 M tartrate, pH 3.5, 25 °C; low efficiency site (heme channel)
AVP [7] = experiment: steady-state kinetics, spectrophotometric ([…] nm); format: biochemical, ancestral sequence (Polyporales, reconstructed); conditions: 0.4 mM H2O2, 0.1 M tartrate, pH 3.5, 25 °C; biphasic kinetics, high efficiency site (exposed Trp)
CaCD [8] = experiment: steady-state kinetics, spectrophotometric ([…] nm); format: biochemical, ancestral sequence (Polyporales, reconstructed); conditions: 0.4 mM H2O2, 0.1 M tartrate, pH 3.0, 25 °C; low efficiency site (heme channel)
CaPo = experiment: steady-state kinetics, spectrophotometric ([…] nm); format: biochemical, ancestral sequence (Polyporales, reconstructed); conditions: 0.4 mM H2O2, 0.1 M tartrate, pH 2, 25 °C; low efficiency site (heme channel)
ALiP [9] = experiment: steady-state kinetics, spectrophotometric ([…] nm); format: biochemical, ancestral sequence (Polyporales, reconstructed); conditions: 0.2 mM H2O2, 0.1 M tartrate, pH 3.0, 25 °C; high efficiency site (exposed Trp)
AVP [10] = experiment: steady-state kinetics, spectrophotometric ([…] nm); format: biochemical, ancestral sequence (Polyporales, reconstructed); conditions: 0.4 mM H2O2, 0.1 M tartrate, pH 3.0, 25 °C; biphasic kinetics, high efficiency site (exposed Trp)
purified protein [11] = substrate: COc1ccc(CO)cc1OC; experiment: purified protein; format: biochemical, Phanerodontia chrysosporium; conditions: 0.1 mM H2O2, 0.1 M tartrate, pH 3.0, 25 °C, exposed Trp site
purified protein [12] = substrate: CCn1c(=NN=c2sc3cc(S(=O)(=O)O)ccc3n2CC)sc2cc(S(=O)(=O)O)ccc21; experiment: purified protein; format: biochemical, Phanerodontia chrysosporium; conditions: 0.1 mM H2O2, 0.1 M tartrate, pH 3.5, 25 °C, high efficiency site (exposed Trp)
purified protein [13] = substrate: COc1cccc(OC)c1O; experiment: purified protein; format: biochemical, Phanerodontia chrysosporium; conditions: 0.1 mM H2O2, 0.1 M tartrate, pH 3.0, 25 °C, high efficiency site (exposed Trp)

COc1ccc(CO)cc1OC [VA]
Km (ALiP [1]): 773 ± 155 µM
Km (AVP [2]): 299 ± 104 µM

Nc1c(N=Nc2ccc(S(=O)(=O)CCOS(=O)(=O)O)cc2)c(S(=O)(=O)O)cc2cc(S(=O)(=O)O)c(N=Nc3ccc(S(=O)(=O)CCOS(=O)(=O)O)cc3)c(O)c12 [RB5]
Km (AVP [3]): 4.8 ± 0.8 µM
Km (ALiP [4]): 12.6 ± 3.6 µM

CCn1c(=NN=c2sc3cc(S(=O)(=O)O)ccc3n2CC)sc2cc(S(=O)(=O)O)ccc21 [ABTS]
Km (ALiP [5]): 13.7 ± 3.5 µM
Km (CaPo-bis): 1390 ± 345 µM
Km (CaPo-tris): 807 ± 104 µM
Km (CaCD [6]): 1280 ± 350 µM
Km (AVP [7]): 5.4 ± 0.7 µM

COc1cccc(OC)c1O [DMP]
Km (CaCD [8]): 66800 µM
Km (CaPo): 32900 µM
Km (ALiP [9]): 34 ± 5.4 µM
Km (AVP [10]): 5.3 ± 1.1 µM

B1: LiPH8 (Phanerodontia chrysosporium) (protein)
chain: ATCSNGKTVGDASCCAWFDVLDDIQQNLFHGGQCGAEAHESIRLVFHDSIAISPAMEAQGKFGGGGADGSIMIFDDIETAFHPNIGLDEIVKLQKPFVQKHGVTPGDFIAFAGRVALSNCPGAPQMNFFTGRAPATQPAPDGLVPEPFHTVDQIINRVNDAGEFDELELVWMLSAHSVAAVNDVDPTVQGLPFDSTPGIFDSQFFVETQLRGTAFPGSGGNQGEVESPLPGEIRIQSDHTIARDSRTACEWQSFVNNQSKLVDDFQFIFLALTQLGQDPNAMTDCSDVIPQSKPIPGNLPFSFFPAGKTIKDVEQACAETPFPTLTTLPGPETSVQRIPPPPGA
Km (purified protein [11]): 79.3 ± 18 µM
kcat (purified protein [11]): 16.2 ± 0.8 s⁻¹
kcat/Km (purified protein [11]): 205000 ± 4000 M⁻¹ s⁻¹
Km (purified protein [12]): 21.3 ± 2.3 µM
kcat (purified protein [12]): 6.5 ± 0.2 s⁻¹
kcat/Km (purified protein [12]): 300000 ± 25000 M⁻¹ s⁻¹
Km (purified protein [13]): 4.0 ± 0.07 µM
